Here are results for 8 compounds from US20010036933A1, “Water soluble lipidated arabinogalactan” (The University of Montana, priority 1996, published 2001).

Series [1] relates to neutrophil-HUVEC adhesion. Put plainly: Neutrophil-HUVEC adhesion under physiological shear forces (closed-loop capillary tube, video-microscopy). The series is classed as cell-based, human. Conditions: for effect on neutrophil rolling on activated HUVEC: 1-100 μg/ml. As to the method: The in vitro effects of Compound A-F listed in Table I on leucocyte and endothelial cell adhesion under physiological shear forces was examined as follows.
Human umbilical vein endothelial cells (HUVEC) were grown to confluence on the internal surface of collagen type I coated capillary tubes. Endothelial cells were stimulated for 4 hours with […] (10 ng, Genzyme), which upregulates adhesion molecules such as E-selectin within 4-6 hours. Neutrophils and lymphocytes were collected from normal human donors by venipuncture and separated from the blood on ficoll-histoplaque density gradients. The endothelial cell-coated tubes were then integrated into the closed-loop system. Leukocytes were infused into the assay system at a concentration of 1×10^6-5×10^6 cell/ml in DMEM plus 20 mM HEPES. Shear forces of 1-3 dynes/cm^2 (standard representation of blood flow) were applied via a variable speed peristaltic pump, and interactions between the leukocytes and endothelial cells were monitored by video-microscopy. Comparisons were made of the binding of leukocytes and endothelial cells treated with the 6 compounds and untreated controls.
To observe the effects of the compounds on neutrophil adhesive interactions, the neutrophils were infused and allowed to establish rolling for two minutes before the addition of the compounds. The compounds were added in increasing 1 μg/ml, 10 μg/ml, and 100 μg/ml final concentrations at 2 minute intervals. The interactions were recorded to video tape.

A short description of series [2]: Formation of oil-water emulsions with water-soluble lipidated arabinogalactan. In kind it is physicochemical.
The test system of series [3] is ovalbumin (“O.A.”). Put plainly: Assay of adjuvant activity: antibody formation in mice injected with ovalbumin plus arabinogalactan compound. In kind it is in vivo. The note with it: for adjuvant activity in antibody formation in comparison to the control: 25 μg ovalbumin in saline with 50, 10 or 2 μg compound, booster day 21, bled days 7, 14, 28, 35. The method, then: In the experiment, 25 μg of ovalbumin (“O.A.”) was injected into mice in a saline solution together with 50, 10, 2 or 0 μg (the control) of the arabinogalactan compounds. The animals were prebled prior to immunization; injected; bled on days 7 and 14; given a booster injection on day 21; and bled on days 28 and 35 for antibody determination.

The test system of series [4] is tumor metastases. Conditions: mice; cited from earlier work.
The nature of series [5]: Solubility of progesterone in water and in aqueous AG decanoate (UV absorption at 250 nm). The series is classed as physicochemical. The note with it: 60° C. 10 min, then 25° C. 20 h. As to the method:
Progesterone was heated with water at 60° C. for 10 min, then held at 25° C. for 20 h. […] When the above experiment was repeated with a 1% aqueous solution of AG decanoate (DS 2.59%) the saturated solution contained 4.7×10^−3% progesterone. In the UV analysis of the AG decanoate solution of the progesterone, the appropriate AG decanoate solution without progesterone was used as a spectrometer blank.

Take AG dodecyl ether (DS 1.3%) [F]: the “effect on neutrophil rolling on activated HUVEC” value (“effect on neutrophil rolling” for short) in series [1] is given as “no measurable effect”.
Regarding AG stearate (DS 1.7%) [B], in series [1], the “concentration effective in blocking neutrophil-HUVEC adhesion” value worked out at 1 µg/mL and the “effect on neutrophil rolling” value is “significantly blocked”.
Turning to “galactan from fractional hydrolysis of AG (arabinose 1.5%)”, in series [1], the “effect on neutrophil rolling” value was “no measurable effect”.
In the case of AG palmitate (DS 1.7%) [C], the “stability of emulsion with safflower oil” value in series [2] (2 mL 1.0% aqueous solution mixed with safflower oil (4 g), room temperature) was “no separation of phases was evident after several days”. Also, the “behaviour on shaking with hexane” value in series [2] (2 mL 1% solution shaken with hexane (1 mL)) is “upper phase became extremely viscous and opaque and remained in this state for several days”. In addition, in series [1], the “concentration effective in blocking neutrophil-HUVEC adhesion” value is 1 µg/mL and the “effect on neutrophil rolling” value is “significantly blocked”. For the same compound, in series [3], the “adjuvant activity in antibody formation in comparison to the control” value (shortened to “adjuvant activity in antibody formation”) is listed as “some adjuvant activity”. The “adjuvant activity, rank among the three arabinogalactan compounds” value in series [3] (ovalbumin antigen) was “highest adjuvant activity”.
On to “AG (ultrarefined) [Compound A, reference compound]”, for which, in series [1], the “effect on neutrophil rolling” value is given as “significantly blocked”. The “reduction in neutrophil adhesion” value in series [1] (during the time course, 1, 10, 100 μg/ml added at 2 minute intervals, IL-stimulated HUVEC) is recorded as roughly 75%. In series [1] (even at 10 μg/ml or 100 μg/ml), the “reduction of neutrophil binding to baseline” value was “did not reduce binding to baseline”. The “effect on tumor metastases” value in series [4] is reported as “reduce tumor metastases”. In addition, the “adjuvant activity in antibody formation” value in series [3] is reported as “some adjuvant activity”.
As for `CC(=O)[C@H]1CC[C@H]2[C@@H]3CCC4=CC(=O)CC[C@]4(C)[C@H]3CC[C@]12C` [Progesterone], the “dissolved progesterone in saturated solution” value is reported as 4.7×10^−3% in series [5] (1% aqueous solution of AG decanoate (DS 2.59%)) and 8.8×10^−4% in series [5] (water).
In the case of AG decanoate (DS 2.6%), the “effect on neutrophil rolling” value in series [1] was “no measurable effect”.
Consider “AG palmitate [high substitution (DS 7.3%) AG palmitate]”, for which the “adjuvant activity in antibody formation” value in series [3] was “some adjuvant activity”.
